Measured values as given in US20070027118A1 (priority 2005, published 2007).
Read-outs that look alike come from different tables or passages of the source.

Assays:
11β-hsd-1 enzyme [1] = molecular target: T1, 11β-hsd-1 enzyme (Homo sapiens, UniProt P28845); assay: biochemical
Description: The 11β-hsd-1 assay was performed in a 100 mM Triethanolamine buffer pH 8.0, containing 200 mM NaCl, 0.02% n-dodecyl β-D-maltoside, 5% glycerol, 5 mM β-mercaptoethanol. A typical reaction for the determination of Kiapp values was carried at R.T. in a Corning® u-bottom 96-well plate and is described as follows: 11β-hsd-1 enzyme (5 nM, final concentration) was pre-incubated in the presence of the inhibitor and NADPH (500 μM, final concentration) for at least 30 minutes in the assay buffer. When pre-incubation was completed, the reaction was initiated by adding the regenerating system (2 mM Glucose-6-Phosphate, 1U/mL Glucose-6-Phosphate dehydrogenase, and 6 mM MgCl2, all the concentration reported are final in the assay buffer), and 3H-cortisone (200 nM, final concentration). After 60 minutes, 60 μL of the assay mixture was transferred to a second 96-well plate and mixed with an equal volume of dimethylsulfoxide to stop the reaction. A 15 μL aliquot from the reaction mixture was loaded into a C-18 column (Polaris C18-A, 50×4.6 mm, 5 μ, 180 Angstrom from Varian) connected to an automated High-throughput Liquid Chromatography instrument developed by Cohesive Technologies Inc, of Franklin, Mass. USA, with a β-RAM model 3 Radio-HPLC detector from IN/US, of Tampa, Fla. USA. The substrate and product peaks were separated by using an isocratic mixture of 43:57 methanol to water (v/v) at a flow rate of 1.0 mL/min.
The initial reaction velocities were measured by stopping the reaction at 60 min and by measuring the area of product formation in the absence and the presence of various concentrations of inhibitors. The Kiapp values were determined using the equation for tight-binding inhibitor developed by Morrison, J. F. (Morrison J. F. Biochim BiophysActa. 1969; 185: 269-86).
The radiolabeled [1,2-3H]-cortisone is commercially available from American Radiolabeled Chemicals Inc of St. Louis, Mo. USA. NADPH, Glucose-6-Phosphate, and Glucose-6-Phosphate dehydrogenase were purchased from Sigma®.
(Morrison J. F. Biochim Biophys Acta. 1969; 185: 269-86).

11β-hsd-1 enzyme [2] = molecular target: T1, 11β-hsd-1 enzyme; assay: biochemical; conditions: for inhibition: read-out: % Inh @ 0.1 mM; for inhibition at 0.1 µM: read-out: % Inh @ 0.1 μM
Description: Percentage of inhibition was determined in a 100 mM Triethanolamine buffer, pH 8.0, 200 mM NaCl, 0.02% n-dodecyl β-D-maltoside and 5 mM β-ME. A typical reaction was carried on a Corning® u-bottom 96-well plate and is described as follows: 11β-hsd-1 enzyme (5 nM, final concentration) was pre-incubated in the presence of the inhibitor and NADPH (500 μM, final concentration) for at least 30 minutes
in the assay buffer. When pre-incubation was completed, the reaction was initiated by adding the regenerating system (2 mM Glucose-6-Phosphate, 1U/mL Glucose-6-Phosphate dehydrogenase, and 6 mM MgCl2, all the concentration reported are final in the assay buffer), and 3H-cortisone (200 nM, final concentration). After 60 minutes, 60 μL of the assay mixture was transferred to a second 96-well plate and mixed with an equal volume of dimethylsulfoxide to stop the reaction. A 15 μL aliquot from the reaction mixture was loaded into a C-18 column (Polaris C18-A, 50×4.6 mm, 5 μ, 180 Angstrom from Varian) connected to an automated High-throughput Liquid Chromatography instrument developed by Cohesive Technologies Inc of Franklin, Mass., with a […] model 3 Radio-HPLC detector from IN/US of Tampa, Fla. The substrate and product peaks were separated by using an isocratic mixture of 43:57 methanol to water (v/v) at a flow rate of 1.0 mL/min.
Percent Inhibition was calculated based on the following equation: (1-(3H-Cortisol peak area in the […] of inhibitor)×100).

T1 sequence (P28845 whole entry, species assumed): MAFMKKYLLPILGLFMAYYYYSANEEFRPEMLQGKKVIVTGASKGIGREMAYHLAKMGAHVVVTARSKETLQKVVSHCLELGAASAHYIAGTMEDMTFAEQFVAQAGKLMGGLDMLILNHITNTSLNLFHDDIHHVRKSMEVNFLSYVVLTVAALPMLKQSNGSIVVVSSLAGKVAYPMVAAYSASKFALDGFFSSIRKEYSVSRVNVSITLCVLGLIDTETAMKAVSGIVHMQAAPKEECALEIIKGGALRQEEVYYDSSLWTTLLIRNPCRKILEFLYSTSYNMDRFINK

Molecule: 4-(6-chloro-13-benzoxazol-2- yl)-N-quinolin-2-ylpiperazine- 1-sulfonamide [Example 167]
- Ki (11β-hsd-1 enzyme [1]; read-out: Klapp, Table 2, 5 nM enzyme, 200 nM 3H-cortisone, 500 μM NADPH): 3.4 nM
- % Inh @ 0.1 mM (11β-hsd-1 enzyme [2]; Table 2, inhibitor 0.1 mM as printed): 100%

Molecule: CCc1cccc(NS(=O)(=O)N2CC[C@@H]3CCCC[C@@H]3C2)n1 (racemic) [Example 120, (4aS*8aS*)-N-(6-ethylpyridin-2-yl)octahydro-isoquinoline-2(1H)-sulfonamide]
- Ki (11β-hsd-1 enzyme [1]): 13 nM
- inhibition (11β-hsd-1 enzyme [2]): 100%

Molecule: Cc1cc(C)nc(NS(=O)(=O)N2CCN(c3ccc(C(F)(F)F)cn3)CC2)c1 [Example 1, N-(4,6-dimethylpyridin-2-yl)-4-[5-(trifluoromethyl)pyridin-2-yl]piperazine-1-sufonamide]
- Ki (11β-hsd-1 enzyme [1]): 4.1 nM
- inhibition at 0.1 µM (11β-hsd-1 enzyme [2]): 95.9%

Molecule: CCc1cccc(NS(=O)(=O)N2CCN(c3ccc(C#N)cn3)CC2)n1 [Example 3, 4-(5-cyanopyridin-2-yl)-N-(6-ethylpyridin-2-yl)piperazine-1-sulfonamide]
- Ki (11β-hsd-1 enzyme [1]): 9 nM
- inhibition at 0.1 µM (11β-hsd-1 enzyme [2]): 88.5%

Molecule: Cc1cccc(NS(=O)(=O)N2CCN(c3ccc(C(F)(F)F)cn3)CC2)n1 [Example 8]
- Ki (11β-hsd-1 enzyme [1]): 2.1 nM
- inhibition at 0.1 µM (11β-hsd-1 enzyme [2]): 96.4%

Molecule: Cc1cc(C)nc(NS(=O)(=O)N2CCN(c3ccc(C#N)cn3)CC2)c1 [Example 9]
- Ki (11β-hsd-1 enzyme [1]): 14 nM
- inhibition at 0.1 µM (11β-hsd-1 enzyme [2]): 86.5%

Molecule: Cc1cccc(NS(=O)(=O)N2CCc3ccc(S(C)(=O)=O)cc3CC2)n1 [Example 10]
- Ki (11β-hsd-1 enzyme [1]): 25.5 nM
- inhibition at 0.1 µM (11β-hsd-1 enzyme [2]): 79.9%

Molecule: Cc1cccc(NS(=O)(=O)N2CCc3ccccc3CC2)n1 [Example 11]
- Ki (11β-hsd-1 enzyme [1]): 2.8 nM
- inhibition at 0.1 µM (11β-hsd-1 enzyme [2]): 95.5%

Molecule: CS(=O)(=O)c1ccc2c(c1)CCN(S(=O)(=O)Nc1ccc3ccccc3n1)CC2 [Example 12, 7-(Methylsulfonyl)-N-quinolin-2-yl-1,2,4,5-tetrahydro-3H-3-benzazepine-3-sulfonamide]
- Ki (11β-hsd-1 enzyme [1]): 8.6 nM
- inhibition at 0.1 µM (11β-hsd-1 enzyme [2]; Table 1, inhibitor 0.1 μM): 100%

Molecule: N#Cc1ccc(N2CCN(S(=O)(=O)Nc3ccc4ccccc4n3)CC2)nc1 [Example 13]
- Ki (11β-hsd-1 enzyme [1]): 7.3 nM
- inhibition at 0.1 µM (11β-hsd-1 enzyme [2]): 94.9%

Molecule: O=S(=O)(Nc1ccc2ccccc2n1)N1CCN(c2ccc(C(F)(F)F)cn2)CC1 [Example 14]
- Ki (11β-hsd-1 enzyme [1]): 4.8 nM
- inhibition at 0.1 µM (11β-hsd-1 enzyme [2]): 100%

Molecule: CCOC(=O)Cc1cccc(NS(=O)(=O)N2CCc3ccccc3CC2)n1 [Example 15, Ethyl {6-[(1,2,4,5-tetrahydro-3H-3-benzazepin-3-ylsulfonyl)amino]pyridin-2-yl}acetate]
- Ki (11β-hsd-1 enzyme [1]): 2 nM
- inhibition at 0.1 µM (11β-hsd-1 enzyme [2]): 100%

Molecule: O=S(=O)(Nc1cccc(CCO)n1)N1CCc2ccccc2CC1 [Example 16, N-[6-(2-hydroxyethyl)pyridin-2-yl]-1,2,4,5-tetrahydro-3H-3-benzazepine-3-sulfonamide]
- Ki (11β-hsd-1 enzyme [1]): 2.4 nM
- inhibition at 0.1 µM (11β-hsd-1 enzyme [2]): 100%

Molecule: CCN(CC)C(=O)Cc1cccc(NS(=O)(=O)N2CCc3ccccc3CC2)n1 [Example 17, N,N-diethyl-2-{6-[(1,2,4,5-tetrahydro-3H-3-benzazepin-3-ylsulfonyl)amino]pyridin-2-yl}acetamide]
- Ki (11β-hsd-1 enzyme [1]): 5.7 nM
- inhibition at 0.1 µM (11β-hsd-1 enzyme [2]): 100%

Molecule: CCc1cccc(NS(=O)(=O)N2CCc3ccc(S(C)(=O)=O)cc3CC2)n1 [Example 18]
- Ki (11β-hsd-1 enzyme [1]): 13 nM
- inhibition at 0.1 µM (11β-hsd-1 enzyme [2]; Table 1, inhibitor 0.1 μM): 78.2%

Molecule: Cc1cc(N)nc(NS(=O)(=O)N2CCN(c3ccc(C#N)cn3)CC2)c1 [Example 20, N-(6-amino-4-methylpyridin-2-yl)-4-(5-cyanopyridin-2-yl)piperazine-1-sulfonamide]
- Ki (11β-hsd-1 enzyme [1]): 2.5 nM
- inhibition at 0.1 µM (11β-hsd-1 enzyme [2]): 100%

Molecule: Cc1cccc(NS(=O)(=O)N2CCCC(c3ccc(F)cc3)C2)n1 (centres unmarked) [Example 22]
- Ki (11β-hsd-1 enzyme [1]): 22 nM
- inhibition at 0.1 µM (11β-hsd-1 enzyme [2]): 90%

Molecule: Cc1cccc(NS(=O)(=O)N2CCN(c3ccc(C#N)cn3)[C@H](C)C2)n1 [Example 23, (3R)-4-(5-cyanopyridin-2-yl)-3-methyl-N-(6-methylpyridin-2-yl)piperazine-1-sulfonamide]
- Ki (11β-hsd-1 enzyme [1]): 19.8 nM
- inhibition at 0.1 µM (11β-hsd-1 enzyme [2]): 100%

Molecule: Cc1cccc(NS(=O)(=O)N2CCC(F)(c3ccc(C#N)cc3)CC2)n1 [Example 25, 4-(4-cyanophenyl)-4-fluoro-N-(6-methylpyridin-2-yl)piper-idine-1-sulfonamide]
- Ki (11β-hsd-1 enzyme [1]): 63.5 nM
- inhibition at 0.1 µM (11β-hsd-1 enzyme [2]; Table 1, inhibitor 0.1 μM): 50%

Molecule: Cc1cccc(NS(=O)(=O)N2CC=C(c3ccc(C#N)cc3)CC2)n1 [Example 26, 4-(4-cyanophenyl)-N-(6-methylpyridin-2-yl)-3,6-dihydro-pyridine-1(2H)-sulfonamide]
- Ki (11β-hsd-1 enzyme [1]): 1.6 nM
- inhibition at 0.1 µM (11β-hsd-1 enzyme [2]): 100%

Molecule: Cc1cc(C)nc(NS(=O)(=O)N2CCN(c3ccc(C#N)cn3)[C@H](C)C2)c1 [Example 28]
- Ki (11β-hsd-1 enzyme [1]): 0.66 nM
- inhibition at 0.1 µM (11β-hsd-1 enzyme [2]): 100%

Molecule: N#Cc1ccc(N2CCN(S(=O)(=O)Nc3cccc(CO)n3)CC2)nc1 [Example 29, 4-(5-cyanopyridin-2-yl)-N-[6-(hydroxymethyl)pyridin-2-yl]piperazine-1-sulfonamide]
- Ki (11β-hsd-1 enzyme [1]): 13 nM
- inhibition at 0.1 µM (11β-hsd-1 enzyme [2]; Table 1, inhibitor 0.1 μM): 95%

Molecule: O=S(=O)(Nc1ccc2ccccc2n1)N1CCOc2ccccc2C1 [Example 174, N-quinolin-2-yl-23-dihydro-14-benzoxazepine-4(5H)-sulfonamide]
- inhibition (11β-hsd-1 enzyme [2]): 57.9%

Molecule: Cc1cc(CC(C)C)nc(N2CCN(S(=O)(=O)Nc3ccc4ccccc4n3)CC2)n1 [Example 175, 4-(4-isobutyl-6-methyl-pyrimidin-2-yl)-N-quinolin-2-ylpiperazine-1-sulfonamide]
- inhibition (11β-hsd-1 enzyme [2]): 50%

Molecule: CC(C)NC(=O)c1ccc(N2CCN(S(=O)(=O)Nc3ccc4ccccc4n3)CC2)nc1 [Example 177, N-isopropyl-6-{4-[(quinolin-2-ylamino)sulfonyl]piperazin-1-yl}nicotinamide]
- inhibition (11β-hsd-1 enzyme [2]): 59.4%

Molecule: Cc1ccc2oc(N3CCN(S(=O)(=O)Nc4ccc5ccccc5n4)CC3)nc2n1 [Example 179, 4-(5-methyl[13]oxazolo[45-b]pyridin-2-yl)-N-quinolin-2-ylpiperazine-1-sulfonamide]
- inhibition (11β-hsd-1 enzyme [2]): 0%

Molecule: CCc1cccc(NS(=O)(=O)N2CCCN(C(=O)OCc3ccccc3)CC2)n1 [Example 182, benzyl 4-{[(6-ethylpyridin-2-yl)amino]sulfonyl}-14-diazepane-1-carboxylate]
- inhibition (11β-hsd-1 enzyme [2]): 61%

Molecule: CCc1cccc(NS(=O)(=O)N2CCN(c3cc(C#N)ccn3)CC2)n1 [Example 184, 4-(4-cyanopyridin-2-yl)-N-(6-ethylpyridin-2-yl)piperazine-1-sulfonamide]
- inhibition (11β-hsd-1 enzyme [2]): 16.8%

Molecule: CCc1cccc(NS(=O)(=O)N2CCN(c3nc4cc(OC)ccc4o3)CC2)n1 [Example 185, N-(6-ethylpyridin-2-yl)-4-(5-methoxy-13-benzoxazol-2-yl)piperazine-1-sulfonamide]
- inhibition (11β-hsd-1 enzyme [2]): 48.9%

Molecule: CCc1cccc(NS(=O)(=O)N2CCN(c3cc(C)nc(C)c3)CC2)n1 [Example 188, 4-(26-dimethylpyridin-4-yl)-N-(6-ethylpyridin-2-yl)piperazine-1-sulfonamide]
- inhibition (11β-hsd-1 enzyme [2]): 5.5%

Molecule: CCc1cccc(NS(=O)(=O)N2CCN(c3ccc(C)cc3)C(=O)C2)n1 [Example 189, N-(6-ethylpyridin-2-yl)-4-(4-methylphenyl)-3-oxopiperazine-1-sulfonamide]
- inhibition (11β-hsd-1 enzyme [2]): 24.9%

Molecule: CCc1cccc(NS(=O)(=O)N2CCc3cc(OC)c(OC)cc3C2)n1 [Example 192, N-(6-ethylpyridin-2-yl)-67-dimethoxy-34-dihydroisoquinoline-2(1H)-sulfonamide]
- inhibition (11β-hsd-1 enzyme [2]): 29.4%

Molecule: CCc1cccc(NS(=O)(=O)N2CCN(c3cnccn3)CC2)n1 [Example 199, N-(6-ethylpyridin-2-yl)-4-pyrazin-2-ylpiperazine-1-sulfonamide]
- inhibition (11β-hsd-1 enzyme [2]): 31.3%

Molecule: CCc1cccc(NS(=O)(=O)N2Cc3ccccc3C2)n1 [Example 202, N-(6-ethylpyridin-2-yl)-13-dihydro-2H-isoindole-2-sulfonamide]
- inhibition (11β-hsd-1 enzyme [2]): 2.4%
